Measurements as given in patent US20230002359A1, “PESTICIDALLY ACTIVE FUSED BICYCLIC HETEROAROMATIC COMPOUNDS” (priority 2019, published 2023).

Assays:
Format in all cases: in vivo
[1] = test system: Plutella xylostella (Diamondback Moth); test: Example B9: Plutella xylostella (diamondback moth), artificial diet, eggs, 96-well; settings: 216 h, application rate of 500 ppm, 9 days after infestation, read-out: control in mortality
Protocol: 96-well microtiter plates containing artificial diet were treated with aqueous test solutions, prepared from 10′000 ppm DMSO stock solutions, by a liquid handling robot. After drying, eggs (˜30 per well) were infested onto a netted lid which was suspended above the diet. The eggs hatch and L1 larvae move down to the diet. The samples were assessed for mortality 9 days after infestation.

[2] = test system: Myzus persicae (Green Peach Aphid); test: Example B6: Myzus persicae (green peach aphid) intrinsic activity, sucrose solution; settings: 120 h, test rate of 12 ppm, 5 days after infestation, intrinsic activity, read-out: mortality
In short: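 Mortality was read 5 days after infestation. Aphids on pea seedlings fed through a stretched Parafilm membrane on inverted 24-well plates containing sucrose solution mixed with test compound, which was diluted from 10′000 ppm DMSO stock.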

[3] = test system: Chilo suppressalis (Striped Rice Stemborer); test: Example B3: Chilo suppressalis (striped rice stemborer), artificial diet, L2 larvae; settings: 144 h, application rate of 200 ppm, 6 days after infestation, L2 larvae, read-out: control in at least one of the three categories (mortality, anti-feedant effect, or growth inhibition)
In short: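 Diet-incorporation surface assay: aqueous dilutions of 10'000 ppm DMSO stock applied to artificial diet, dried; 6-8 L2 larvae/well; read day 6 post-infestation for mortality, antifeedant effect, growth inhibition vs untreated. Active if any category above untreated.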

[4] = test system: Plutella xylostella (Diamond Back Moth); test: Example B4: Plutella xylostella (diamond back moth), artificial diet, eggs, 24-well; settings: 192 h, application rate of 200 ppm, 8 days after infestation, eggs, read-out: control in at least one of the two categories (mortality or growth inhibition)
Protocol: 24-well microtiter plates with artificial diet were treated with aqueous test solutions prepared from 10′000 ppm DMSO stock solutions by pipetting. After drying, Plutella eggs were pipetted through a plastic stencil onto a gel blotting paper and the plate was closed with it. The samples were assessed for mortality and growth inhibition in comparison to untreated samples 8 days after infestation.

[5] = test system: Diabrotica Balteata (Corn Root Worm); test: Example B1: Diabrotica balteata (corn root worm), maize sprouts sprayed, L2 larvae; settings: 96 h, application rate of 200 ppm, 4 days after infestation, L2 larvae, read-out: control in at least one of the two categories (mortality or growth inhibition)
In short: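 Larvae at L2 stage, 6 to 10 per well, feed on dried, spray-treated maize sprouts set on agar. Evaluation after 4 days compares mortality and growth inhibition with untreated samples.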

[6] = test system: Spodoptera littoralis (Egyptian Cotton Leaf Worm); test: Example B8: Spodoptera littoralis (Egyptian cotton leaf worm), uptake by lettuce roots from agar, eggs; settings: 144 h, test rate of 12.5 ppm, 6 days after infestation, compound absorbed by lettuce roots, read-out: control in at least one of the three categories (mortality, anti-feeding, or growth inhibition)
Source text: Test compounds were applied by pipette from 10′000 ppm DMSO stock solutions into 24-well plates and mixed with agar. Lettuce seeds were placed onto the agar and the multi well plate was closed by another plate which contained also agar. After 7 days the compound was absorbed by the roots and the lettuce grew into the lid plate. The lettuce leaves were then cut off into the lid plate. Spodoptera eggs were pipetted through a plastic stencil onto a humid gel blotting paper and the lid plate was closed with it. The samples were assessed for mortality, anti-feedant effect and growth inhibition in comparison to untreated samples 6 days after infestation.
The following compounds gave an effect of at least 80% control in at least one of the three categories (mortality, anti-feeding, or growth inhibition) at a test rate of 12.5 ppm: P.58, P.93, P.94, P.95, P.130, P.254, P.256.

[7] = test system: Spodoptera littoralis (Egyptian Cotton Leaf Worm); test: Example B7: Spodoptera littoralis (Egyptian cotton leaf worm), cotton leaf discs sprayed, L1 larvae; settings: foliar, 72 h, application rate of 200 ppm, 3 days after infestation, L1 larvae, read-out: control in at least one of the three categories (mortality, anti-feedant effect, or growth inhibition)
In short: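 Cotton leaf discs on agar were sprayed with aqueous test solutions made from 10′000 ppm DMSO stocks, dried, then infested with five L1 larvae. Mortality, anti-feeding effect and growth inhibition were scored against untreated discs 3 days after infestation; control means any category exceeds untreated.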

[8] = test system: Myzus persicae (Green Peach Aphid); test: Example B5: Myzus persicae (green peach aphid) feeding/contact activity, sunflower leaf discs; settings: foliar, 144 h, application rate of 200 ppm, 6 days after infestation
Protocol: Sunflower leaf discs were placed onto agar in a 24-well microtiter plate and sprayed with aqueous test solutions prepared from 10′000 ppm DMSO stock solutions. After drying, the leaf discs were infested with an aphid population of mixed ages. The samples were assessed for mortality 6 days after infestation.

[9] = test system: Euschistus heros (Neotropical Brown Stink Bug); test: Example B2: Euschistus heros (neotropical brown stink bug), soybean leaves sprayed, N2 nymphs; settings: 120 h, application rate of 200 ppm, 5 days after infestation, N2 nymphs, read-out: control in at least one of the two categories (mortality or growth inhibition)
Protocol: Soybean leaves on agar in 24-well microtiter plates were sprayed with aqueous test solutions prepared from 10′000 ppm DMSO stock solutions. After drying the leaves were infested with N2 nymphs. The samples were assessed for mortality and growth inhibition in comparison to untreated samples 5 days after infestation.

CC(c1ncnn1-c1ncccn1)N(C)c1ncnc2c(Cl)cc(Cl)cc12 (stereo not drawn) [P.66, 6,8-dichloro-N-methyl-N-[1-(2-pyrimidin-2-yl-1,2,4-triazol-3-yl)ethyl]quianzolin-4-amine]
≥ 80%: mortality at 500 ppm [1] | mortality at 12 ppm [2] | percent control (mortality, anti-feedant effect or growth inhibition) at 200 ppm [3] | percent control (mortality or growth inhibition) at 200 ppm [4] | percent control (mortality or growth inhibition) at 200 ppm [5]

CC(c1ncnn1-c1ncccn1)N(C)c1ncnc2c(C(F)(F)F)cc(C(F)(F)F)cc12 (stereo not drawn) [P.58, N-methyl-N-[1-(2-pyrimidin-2-yl-1,2,4-triazol-3-yl)ethyl]-6,8-bis(trifluoromethyl)quina-zolin-4-amine]
≥ 80%: mortality at 500 ppm [1] | percent control (mortality, anti-feeding or growth inhibition) at 12.5 ppm [6]

CC(Nc1ncnc2c(Cl)cc(Cl)cc12)c1ncnn1-c1ncccn1 (stereo not drawn) [P.68, 6,8-dichloro-N-[1-(2-pyrimidin-2-yl-1,2,4-triazol-3-yl)ethyl]quinazolin-4-amine]
≥ 80%: mortality at 500 ppm [1] | percent control (mortality, anti-feedant effect or growth inhibition) at 200 ppm [3] | percent control (mortality or growth inhibition) at 200 ppm [4] | percent control (mortality, anti-feedant effect or growth inhibition) at 200 ppm [7] | percent control (mortality or growth inhibition) at 200 ppm [5]

C[C@H](Nc1ncnc2c(Cl)cc(OC(F)F)cc12)c1ncnn1-c1ncccn1 [P.94, 8-chloro-6-(difluoromethoxy)-N-[(1S)-1-(2-pyrimidin-2-yl-1,2,4-triazol-3-yl)ethyl]quinazolin-4-amine]
≥ 80%: mortality at 500 ppm [1] | mortality at 12 ppm [2] | percent control (mortality, anti-feedant effect or growth inhibition) at 200 ppm [3] | percent control (mortality, anti-feeding or growth inhibition) at 12.5 ppm [6] | mortality at 200 ppm [8] | percent control (mortality or growth inhibition) at 200 ppm [4] | percent control (mortality or growth inhibition) at 200 ppm [5]

CC(c1ncnn1-c1ccc(C#N)cn1)N(C)c1ncnc2c(C(F)(F)F)cc(Br)cc12 (stereo not drawn) [P.52, 6-[5-[1-[[6-bromo-8-(trifluoromethyl)quinazolin-4-yl]-methyl-amino]ethyl]-1,2,4-triazol-1-yl]pyridine-3-carbonitrile]
≥ 80%: mortality at 500 ppm [1] | mortality at 12 ppm [2] | percent control (mortality, anti-feedant effect or growth inhibition) at 200 ppm [3] | mortality at 200 ppm [8] | percent control (mortality or growth inhibition) at 200 ppm [4] | percent control (mortality, anti-feedant effect or growth inhibition) at 200 ppm [7] | percent control (mortality or growth inhibition) at 200 ppm [5]

C[C@@H](c1ncnn1-c1ccc(C#N)cn1)N(C)c1ccnc2c(Br)cc(C(F)(F)F)cc12 [P.254, 6-[5-[(1S)-1-[[8-bromo-6-(trifluoromethyl)-4-quinolyl]-methyl-amino]ethyl]-1,2,4-triazol-1-yl]pyridine-3-carbonitrile]
≥ 80%: percent control (mortality, anti-feedant effect or growth inhibition) at 200 ppm [3] | percent control (mortality, anti-feeding or growth inhibition) at 12.5 ppm [6] | percent control (mortality or growth inhibition) at 200 ppm [4] | percent control (mortality, anti-feedant effect or growth inhibition) at 200 ppm [7] | percent control (mortality or growth inhibition) at 200 ppm [5]

C[C@H](Nc1ncnc2c(OC(F)F)cc(Cl)cc12)c1ncnn1-c1ncccn1 [P.93, 6-chloro-8-(difluoromethoxy)-N-[(1S)-1-(2-pyrimidin-2-yl-1,2,4-triazol-3-yl)ethyl]quinazolin-4-amine]
≥ 80%: mortality at 500 ppm [1] | mortality at 12 ppm [2] | percent control (mortality, anti-feedant effect or growth inhibition) at 200 ppm [3] | percent control (mortality, anti-feeding or growth inhibition) at 12.5 ppm [6] | percent control (mortality or growth inhibition) at 200 ppm [4] | percent control (mortality, anti-feedant effect or growth inhibition) at 200 ppm [7] | percent control (mortality or growth inhibition) at 200 ppm [9] | percent control (mortality or growth inhibition) at 200 ppm [5]

CC(Nc1ncnc2ccc(C(F)(F)F)cc12)c1ncnn1-c1ccc(C#N)cn1 (stereo not drawn) [P.64, 6-[5-[1-[[6-(trifluoromethyl)quinazolin-4-yl]amino]ethyl]-1,2,4-triazol-1-yl]pyridine-3-carbonitrile]
≥ 80%: mortality at 500 ppm [1] | percent control (mortality, anti-feedant effect or growth inhibition) at 200 ppm [3] | percent control (mortality or growth inhibition) at 200 ppm [4] | percent control (mortality, anti-feedant effect or growth inhibition) at 200 ppm [7] | percent control (mortality or growth inhibition) at 200 ppm [5]

CC(Nc1ncnc2c(C(F)(F)F)cc(C(F)(F)F)cc12)c1ncnn1-c1ccc(C#N)cn1 (stereo not drawn) [P.61, 6-[5-[1-[[6,8-bis(trifluoromethyl)quina-zolin-4-yl]amino]ethyl]-1,2,4-triazol-1-yl]pyridine-3-carbonitrile]
≥ 80%: mortality at 500 ppm [1] | percent control (mortality, anti-feedant effect or growth inhibition) at 200 ppm [3] | percent control (mortality or growth inhibition) at 200 ppm [4] | percent control (mortality, anti-feedant effect or growth inhibition) at 200 ppm [7]

C[C@H](Nc1ccnc2c(Br)cc(C(F)(F)F)cc12)c1ncnn1-c1ccc(C#N)cn1 [P.256, 6-[5-[(1S)-1-[[8-bromo-6-(trifluoromethyl)-4-quinolyl]amino]ethyl]-1,2,4-triazol-1-yl]pyridine-3-carbonitrile]
≥ 80%: percent control (mortality, anti-feedant effect or growth inhibition) at 200 ppm [3] | percent control (mortality, anti-feeding or growth inhibition) at 12.5 ppm [6] | percent control (mortality or growth inhibition) at 200 ppm [4] | percent control (mortality, anti-feedant effect or growth inhibition) at 200 ppm [7] | percent control (mortality or growth inhibition) at 200 ppm [5]

CC(Nc1ncnc2c(C(F)(F)F)cc(Cl)cc12)c1nccnc1-c1ncccn1 (stereo not drawn) [P.130, 6-chloro-N-[1-(3-pyrimidin-2-ylpyrazin-2-yl)ethyl]-8-(trifluoromethyl)quinazolin-4-amine]
≥ 80%: mortality at 12 ppm [2] | percent control (mortality, anti-feedant effect or growth inhibition) at 200 ppm [3] | percent control (mortality, anti-feeding or growth inhibition) at 12.5 ppm [6] | mortality at 200 ppm [8] | percent control (mortality or growth inhibition) at 200 ppm [4] | percent control (mortality, anti-feedant effect or growth inhibition) at 200 ppm [7] | percent control (mortality or growth inhibition) at 200 ppm [5]

CC(Nc1ncnc2c(C(F)(F)F)cc(Br)cc12)c1ncnn1-c1ccc(C#N)cn1 (stereo not drawn) [P.63, 6-[5-[1-[[6-bromo-8-(trifluoromethyl)quinazolin-4-yl]amino]ethyl]-1,2,4-triazol-1-yl]pyridine-3-carbonitrile]
≥ 80%: mortality at 500 ppm [1] | percent control (mortality, anti-feedant effect or growth inhibition) at 200 ppm [3] | percent control (mortality or growth inhibition) at 200 ppm [4] | percent control (mortality, anti-feedant effect or growth inhibition) at 200 ppm [7]

CC(Nc1ncnc2c(Cl)cc(Cl)cc12)c1ncnn1-c1ccc(C#N)cn1 (stereo not drawn) [P.65, 6-[5-[1-[(6,8-dichloroquinazolin-4-yl)amio]ethyl]-1,2,4-triazol-1-yl]pyridine-3-carbonitrile]
≥ 80%: mortality at 500 ppm [1] | percent control (mortality, anti-feedant effect or growth inhibition) at 200 ppm [3] | percent control (mortality or growth inhibition) at 200 ppm [4]

CC(Nc1ccnc2c(Cl)cc(Cl)cc12)c1ncnn1-c1ncccn1 (stereo not drawn) [P.67, 6,8-dichloro-N-[1-(2-pyrimidin-2-yl-1,2,4-triazol-3-yl)ethyl]quinolin-4-amine]
≥ 80%: mortality at 500 ppm [1] | percent control (mortality, anti-feedant effect or growth inhibition) at 200 ppm [3] | percent control (mortality or growth inhibition) at 200 ppm [4] | percent control (mortality, anti-feedant effect or growth inhibition) at 200 ppm [7] | percent control (mortality or growth inhibition) at 200 ppm [5]
